{
  "source": "patent US20090170762A1",
  "about": "“Treatment of Diabetes Related Obesity” (UUTech Limited, priority 2005, published 2009)",
  "key": {"[1]": {"molecular_target": "T1, human GIP-R (Homo sapiens, UniProt P48546)", "T1 construct": "expressed in transfected cells; host or cells: Chinese Hamster Lung (CHL) fibroblast cells, stably transfected", "T1 sequence (P48546 22-466)": "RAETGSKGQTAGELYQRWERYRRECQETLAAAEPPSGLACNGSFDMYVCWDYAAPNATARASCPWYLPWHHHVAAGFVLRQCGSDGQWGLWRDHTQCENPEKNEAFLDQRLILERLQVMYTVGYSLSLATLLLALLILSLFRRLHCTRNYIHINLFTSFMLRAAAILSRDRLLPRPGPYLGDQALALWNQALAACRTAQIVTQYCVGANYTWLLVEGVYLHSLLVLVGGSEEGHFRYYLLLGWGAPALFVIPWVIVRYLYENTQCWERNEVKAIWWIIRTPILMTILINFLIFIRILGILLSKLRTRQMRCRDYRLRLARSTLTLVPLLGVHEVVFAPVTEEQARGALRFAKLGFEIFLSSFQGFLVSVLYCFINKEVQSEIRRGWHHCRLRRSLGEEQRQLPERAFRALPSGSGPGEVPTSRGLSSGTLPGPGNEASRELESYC", "assay": "Cyclic AMP production in GIP-R transfected CHL cells", "type": "cell-based", "procedure,_shortened": "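Cells washed in ice-cold HBS buffer (5.6 mm glucose, pH 7.4), then lysed in TCA/SDS solution with unlabelled cAMP and ATP. Tritiated cAMP formation measured by Dowex and alumina ion-exchange column chromatography.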"}, "[2]": {"system": "ob/ob mice", "assay": "14 once-daily injections of GIP analogues in ob/ob mice", "type": "in vivo, mouse", "details": "14 days daily, insulin 50 U/kg", "protocol": "Animals. Obese diabetic (ob/ob) mice derived from the colony maintained at Aston University, UK (Bailey C. J. et al., 1982, Int. J. Obes. 6:11-21) were used at 14-18 weeks of age. Animals were age-matched, divided into groups and housed individually in an air-conditioned room at 22±2° C. with a 12 hour light: 12 hour dark cycle (08:00-20:00 hr). Drinking water and a standard rodent maintenance diet (Trouw Nutrition, Cheshire, UK) were freely available. All animal experiments were carried out in accordance with the UK Animals (Scientific Procedures) Act 1986.\nMethods. […] Intraperitoneal glucose tolerance (18 mmol/kg body wt) and insulin sensitivity (50 U/kg body wt) tests were performed at the end of the study period. Blood samples taken from the cut tip of the tail vein of conscious mice at the times indicated in the Figures were immediately centrifuged using a Beckman microcentrifuge (Beckman Instruments, UK) for 30 seconds at 13,000×g. The resulting plasma was then aliquoted into fresh Eppendorf tubes and stored at −20° C. prior to glucose and insulin determinations."}, "[3]": {"system": "adult ob/ob mice", "details": "daily 11 days (Gault 2005); cited from earlier work"}},
  "note": "Ends that are not written are not given here.",
  "data": [
    {"sequence": "YAPGTFISDYSIAMDKIHQQDFVNWLLAQKGKKNDWKHNITQ [(Pro^3)GIP]", "values": [
      {"measurement": "EC50", "setting": "[1]", "value": 207, "unit": "nM"},
      {"measurement": "remaining activity at 0.1 µM", "setting": "[1]; CHL, read-out: cAMP response in presence of 10^-7 M GIP (% GIP max)", "value": "66 ± 7", "unit": "%"},
      {"measurement": "inhibition of GIP-stimulated cAMP production", "setting": "[1]; in presence of GIP (10^-7 m)", "value": "significantly inhibited"},
      {"measurement": "hypoglycemic action of insulin", "setting": "[2]", "value": "significantly augmented"},
      {"measurement": "features of type 2 diabetes", "setting": "[3]", "value": "improved many of the characteristic features of type 2 diabetes"}
    ]}
  ]
}
